The values below are quoted from earlier work in patent publication US20060099667A1, “Method for performing restrained dynamics docking of one or multiple substrates on multi-specific enzymes” (priority 2002, published 2006).

“Also recorded” adds a separate entry of the source. Structures can show the parent of a compound that is named as a salt.

Targets include CYP3A7 (Homo sapiens, UniProt P24462); CYP3A5 (Homo sapiens, UniProt P20815); CYP3A4 (Homo sapiens, UniProt P08684).

CYP3A7, sequence (P24462 whole entry): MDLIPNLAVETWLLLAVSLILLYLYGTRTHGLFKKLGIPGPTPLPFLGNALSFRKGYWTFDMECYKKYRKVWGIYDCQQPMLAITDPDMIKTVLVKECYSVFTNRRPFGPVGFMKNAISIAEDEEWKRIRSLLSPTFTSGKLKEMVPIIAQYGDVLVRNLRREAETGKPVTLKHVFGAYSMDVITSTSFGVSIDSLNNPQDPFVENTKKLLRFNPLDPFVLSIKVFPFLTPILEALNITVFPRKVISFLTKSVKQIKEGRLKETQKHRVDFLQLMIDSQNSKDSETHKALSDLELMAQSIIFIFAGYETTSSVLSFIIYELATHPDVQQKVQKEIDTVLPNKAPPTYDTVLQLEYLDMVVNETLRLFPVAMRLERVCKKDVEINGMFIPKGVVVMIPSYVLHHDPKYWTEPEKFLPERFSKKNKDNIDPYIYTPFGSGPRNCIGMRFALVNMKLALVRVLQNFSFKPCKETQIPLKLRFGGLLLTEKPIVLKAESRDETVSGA
CYP3A4, sequence (P08684 whole entry): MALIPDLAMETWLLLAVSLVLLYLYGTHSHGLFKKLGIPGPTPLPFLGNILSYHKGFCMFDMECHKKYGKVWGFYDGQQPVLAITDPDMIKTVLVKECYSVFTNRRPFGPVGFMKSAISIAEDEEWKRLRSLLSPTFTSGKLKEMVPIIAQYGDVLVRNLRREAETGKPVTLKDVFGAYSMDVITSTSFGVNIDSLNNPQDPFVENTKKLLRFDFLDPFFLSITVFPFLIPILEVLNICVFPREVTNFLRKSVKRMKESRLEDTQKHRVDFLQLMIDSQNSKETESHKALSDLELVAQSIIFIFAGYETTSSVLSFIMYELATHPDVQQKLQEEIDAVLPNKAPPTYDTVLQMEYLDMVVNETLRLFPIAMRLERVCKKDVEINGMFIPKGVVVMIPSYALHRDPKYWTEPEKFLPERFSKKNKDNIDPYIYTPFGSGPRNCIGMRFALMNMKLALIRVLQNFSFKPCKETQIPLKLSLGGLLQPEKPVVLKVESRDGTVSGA
CYP3A5, sequence (P20815 whole entry): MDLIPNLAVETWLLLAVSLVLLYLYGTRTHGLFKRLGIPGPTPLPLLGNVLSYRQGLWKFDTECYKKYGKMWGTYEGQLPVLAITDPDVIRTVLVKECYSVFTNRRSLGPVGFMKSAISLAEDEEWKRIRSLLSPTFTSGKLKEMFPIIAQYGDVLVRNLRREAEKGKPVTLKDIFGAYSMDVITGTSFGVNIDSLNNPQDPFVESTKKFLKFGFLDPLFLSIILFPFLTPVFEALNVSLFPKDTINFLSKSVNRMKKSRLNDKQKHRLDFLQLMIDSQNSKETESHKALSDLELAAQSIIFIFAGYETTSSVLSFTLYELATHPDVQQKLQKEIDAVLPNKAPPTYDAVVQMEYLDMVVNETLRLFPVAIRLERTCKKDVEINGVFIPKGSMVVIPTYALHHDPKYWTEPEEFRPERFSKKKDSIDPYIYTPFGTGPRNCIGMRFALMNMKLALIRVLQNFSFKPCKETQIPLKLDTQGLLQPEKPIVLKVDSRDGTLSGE

For `C[C@]12CC[C@H](OS(=O)(=O)O)CC1=CC[C@@H]1[C@@H]2CC[C@]2(C)C(=O)CC[C@@H]12` [DHEA 3 sulfate conjugate], the position of oxidation entry at CYP3A7 is “exclusively on the 16α position”.
As for `C[C@]12CC[C@H]3[C@@H](CCC4=CC(=O)CC[C@@]43C)[C@@H]1CC[C@@H]2O` [testosterone], the position of oxidation result at CYP3A5 was “almost exclusively in the 6β position”; at CYP3A4, “exclusively at the 6β position; also recorded: almost exclusively in the 6β position”; at CYP3A7, “both 6β and 16α position”.
